The results in this text go back to US5453439A, “Hydroxylamine derivatives” (Zeneca Limited, priority 1992, dated 1995).

The test system of test [1] is LTB4 liberation induced by zymosan (5-LO). Kind of test: Test c) in vivo zymosan-induced LTB4 liberation in rat subcutaneous air pouch, oral administration. To be noted: 3 h; test c). The protocol: c) An in vivo system involving measuring the effects of a test compound administered orally against the liberation of LTB4 induced by zymosan within an air pouch generated within the subcutaneous tissue of the back of male rats. The rats are anaesthetised and air pouches are formed by the injection of sterile air (20 ml). A further injection of air (10 ml) is similarly given after 3 days. At 6 days after the initial air injection the test compound is administered (usually orally as the suspension produced when a solution of the test compound in dimethylsulphoxide is added to hydroxypropylmethylcellulose), followed by the intrapouch injection of zymosan (1 ml of a 1% suspension in physiological saline). After 3 hours the rats are killed, the air pouches are lavaged with physiological saline, and the specific radioimmunoassay described above is used to assay LTB4 in the washings. This test provides an indication of inhibitory effects against 5-LO in an inflammatory milieu.

Another test addresses T1, 5-LO (Homo sapiens, UniProt P09917).
T1 construct: incubating a test compound with heparinised human blood; endogenous in cells; host or cells: heparinised human blood (blood cells; A23187 challenge)
T1 sequence (P09917 1-674): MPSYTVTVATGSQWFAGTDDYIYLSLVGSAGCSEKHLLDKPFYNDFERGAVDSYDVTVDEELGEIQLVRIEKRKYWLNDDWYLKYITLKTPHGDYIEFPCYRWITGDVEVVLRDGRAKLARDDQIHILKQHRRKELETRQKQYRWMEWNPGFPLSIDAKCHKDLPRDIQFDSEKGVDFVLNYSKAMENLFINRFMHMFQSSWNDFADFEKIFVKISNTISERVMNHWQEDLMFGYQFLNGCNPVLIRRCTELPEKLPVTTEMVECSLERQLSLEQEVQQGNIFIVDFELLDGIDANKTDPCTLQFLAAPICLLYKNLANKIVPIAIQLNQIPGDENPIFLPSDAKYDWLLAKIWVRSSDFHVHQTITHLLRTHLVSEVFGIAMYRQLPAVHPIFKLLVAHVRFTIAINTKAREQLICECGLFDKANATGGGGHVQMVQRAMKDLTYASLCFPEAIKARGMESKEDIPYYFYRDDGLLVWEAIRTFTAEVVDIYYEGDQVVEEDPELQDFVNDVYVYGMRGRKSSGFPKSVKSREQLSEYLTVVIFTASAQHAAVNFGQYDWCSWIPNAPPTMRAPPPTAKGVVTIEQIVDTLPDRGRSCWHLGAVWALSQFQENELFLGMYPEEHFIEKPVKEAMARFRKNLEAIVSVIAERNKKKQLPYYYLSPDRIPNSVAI
As to the kind of experiment: Test a) in vitro heparinised human blood, A23187 challenge, LTB4 radioimmunoassay (indirect inhibition of 5-LO). Format: cell-based. The protocol: a) An in vitro assay system involving incubating a test compound with heparinised human blood, prior to challenge with the calcium ionophore A^23187 and then indirectly measuring the inhibitory effects on 5-LO by assaying the amount of LTB4 using specific radioimmunoassays described by Carey and Forder (Prostaglandins, Leukotrienes Med., 1986, 22, 57; Prostaglandins, 1984, 28, 666; Brit. J. Pharmacol., 1985, 84, 34P) which involves the use of a protein-LTB4 conjugate produced using the procedure of Young et alia (Prostaglandins, 1983, 26(4), 605-613). The effects of a test compound on the enzyme cyclooxygenase (which is involved in the alternative metabolic pathway for arachidonic acid and gives rise to prostaglandins, thromboxanes and related metabolites) may be measured at the same time using the specific radioimmunoassay for thromboxane B2 (TxB2) described by Carey and Forder (see above). This test provides an indication of the effects of a test compound against 5-LO and also cyclooxygenase in the presence of blood cells and proteins. It permits the selectivity of the inhibitory effect on 5-LO or cyclooxygenase to be assessed.

Each structure is given as a SMILES string.

A word on the ED50: it is the dose at which the effect has come halfway, by size or by number of responders. Broadly, the IC50 is the concentration at which inhibition is half-maximal. A high value points to a need for much substance. In the case of `COC1(c2cc(F)cc(Sc3ccc(C(C)N(OC(C)=O)C(C)=O)cc3)c2)CCOCC1` (stereo not drawn) [O-acetyl-N-{4-[5-fluoro-3-(4-methoxytetrahydropyran-4-yl)phenylthio]-α-methylbenzyl}acetohydroxamic acid], the ED50 in test [1] was around 0.5 mg/kg. This compound also displayed an IC50 against 5-LO of 0.15 µM.

For `CONC(C)c1ccc(Sc2cc(F)cc(C3(OC)CCOCC3)c2)cc1` (stereo not drawn) [N-{4-[5-fluoro-3-(4-methoxytetrahydropyran-4-yl)phenylthio]-α-methylbenzyl}-O-methylhydroxylamine], in test [1], the ED50 is around 0.5 mg/kg. For the same compound, the IC50 at 5-LO stood at 0.04 µM.

As to `COC1(c2cc(F)cc(Sc3ccc(C(C)N(O)C(N)=O)cc3)c2)CCOCC1` (stereo not drawn) [N-{4-[5-fluoro-3-(4-methoxytetrahydropyran-4-yl)phenylthio]-α-methylbenzyl)-N-hydroxyurea], the ED50 in test [1] is around 0.5 mg/kg. On 5-LO, this compound had an IC50 of 0.57 µM.
